Results as given in patent publication US7462717B2, “C6-and C9-substituted chromeno[4,3-c]isoxazoline derivatives and their use as anti-depressants” (Janssen Pharmaceutica N.V., priority 2002, dated 2008).

Key:
[1] = molecular target: T1, h5-HT transporter (Homo sapiens, UniProt P31645); test: Radioligand binding experiment for 5-HT transporter ([3H]paroxetine); conditions: human platelet membranes; [3H]paroxetine 0.5 nM; read-out: 5-HTT (converted)
T1 construct: Human platelet membranes (Oceanix Biosciences Corporation, Hanover, Md., USA) were thawed; tissue Oceanix Biosciences Corporation; host or cells: human platelet membranes
Description: (§1) The interaction of the compounds of Formula (I) with hα2-receptors and h5-HT-transporters was assessed in in vitro radioligand binding experiments. In general, a low concentration of a radioligand with a high binding affinity for a particular receptor or transporter is incubated with a sample of a tissue preparation enriched in a particular receptor or transporter or with a preparation of cells expressing cloned human receptors in a buffered medium. During the incubation, the radioligand binds to the receptor or transporter. When equilibrium of binding is reached, the receptor bound radioactivity is separated from the non-bound radioactivity, and the receptor- or transporter-bound activity is counted. The interaction of the test compounds with the receptor is assessed in competition binding experiments. Various concentrations of the test compound are added to the incubation mixture containing the receptor- or transporter preparation and the radioligand. The test compound in proportion to its binding affinity and its concentration inhibits binding of the radioligand. The radioligand used for hα2A, hα2B and hα2C receptor binding was [^3H]-raulwolscine and for the h5-HT transporter was [^3H]paroxetine.
Human platelet membranes (Oceanix Biosciences Corporation, Hanover, Md., USA) were thawed, diluted in buffer (Tris-HCl 50 mM, 120 mM NaCl and 5 mM KCl) and quickly (max 3 s) homogenised with an Ultraturrax homogenizer. In a total volume of 250 μL, 50-100 μg protein was incubated with [^3H]paroxetine (NET-869) (New England Nuclear, USA) (0.5 nM final concentration) with or without competitor for 60 min at 25° C. Incubation was stopped by rapid filtration of the incubation mixture over GF/B filters, pre-wetted with 0.1% polyethyleneamine, using a Filtermate 196 harvester (Packard, Meriden, Conn.). Filters were rinsed extensively with ice-cold buffer and radioactivity on the filters was counted in a Topcount liquid scintillation counter (Packard, Meriden, Conn.). Data were expressed as cpm. Imipramine (at 1 μM final concentration) was used to determine the non-specific binding.
(§2) Data from assays in the presence of compound were calculated as a percentage of total binding measured in the absence of test compound. Inhibition curves, plotting percent of total binding versus the log value of the concentration of the test compound, were automatically generated, and sigmoidal inhibition curves were fitted using non-linear regression. The pIC50 values of test compounds were derived from individual curves. All compounds according to Formula (I) produced an inhibition at least at the hα2A site (but often also at the hα2B and hα2C sites) and simultaneously at the 5-HT transporter site of more than 50% (PIC50) at a test concentration ranging between 10^−6 M and 10^−9 M in a concentration-dependent manner.

[2] = molecular target: T2, hα2B receptor (Homo sapiens, UniProt P18089); test: Radioligand binding experiment for α2B-adrenergic receptor ([3H]-raulwolscine); conditions: membranes of CHO cells transfected with human α2B receptor; [3H]raulwolscine 1 nM
T2 construct: expressed in transfected cells
T2 sequence (P18089 1-450): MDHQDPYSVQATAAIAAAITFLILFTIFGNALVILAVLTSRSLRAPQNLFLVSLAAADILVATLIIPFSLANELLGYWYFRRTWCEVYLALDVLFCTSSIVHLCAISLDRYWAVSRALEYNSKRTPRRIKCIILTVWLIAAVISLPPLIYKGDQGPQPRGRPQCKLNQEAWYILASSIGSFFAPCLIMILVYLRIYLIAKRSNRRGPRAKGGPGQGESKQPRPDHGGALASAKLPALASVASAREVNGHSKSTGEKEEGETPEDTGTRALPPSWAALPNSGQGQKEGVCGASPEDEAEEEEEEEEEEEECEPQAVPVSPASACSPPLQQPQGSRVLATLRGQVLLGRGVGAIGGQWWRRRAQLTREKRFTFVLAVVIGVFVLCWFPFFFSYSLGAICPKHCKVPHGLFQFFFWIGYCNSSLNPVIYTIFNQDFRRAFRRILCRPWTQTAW
Description: as §1
(§3) CHO cells, stabile transfected with human adrenergic-α2A-, -α2B or α2C receptor cDNA, were cultured in Dulbecco's Modified Eagle's Medium (DMEM)/Nutrient mixture Ham's F12 (ratio 1:1) (Gibco, Gent-Belgium) supplemented with 10% heat inactivated fetal calf serum (Life Technologies, Merelbeke-Belgium) and antibiotics (100 IU/ml penicillin G, 100 μg/ml streptomycin sulphate, 110 μg/ml pyruvic acid and 100 μg/ml L-glutamine). One day before collection, cells were induced with 5 mM sodiumbutyrate. Upon 80-90% of confluence, cells were scraped in phosphate buffered saline without Ca^2+ and Mg^2+ and collected by centrifugation at 1500×g for 10 min. The cells were homogenised in Tris-HCl 50 mM using an Ultraturrax homogenizer and centrifuged for 10 min at 23,500×g. The pellet was washed once by resuspension and rehomogenization and the final pellet was resuspended in Tris-HCl, divided in 1 ml aliquots and stored at −70° C.
(§4) Membranes were thawed and re-homogenized in incubation buffer (glycylglycine 25 mM, pH 8.0). In a total volume of 500 μl, 2-10 μg protein was incubated with [^3H]raulwolscine (NET-722) (New England Nuclear, USA) (1 nM final concentration) with or without competitor for 60 min at 25° C. followed by rapid filtration over GF/B filter using a Filtermate 196 harvester (Packard, Meriden, Conn.). Filters were rinsed extensively with ice-cold rinsing buffer (Tris-HCl 50 mM pH 7.4). Filter-bound radioactivity was determined by scintillation counting in a Topcount (Packard, Meriden, Conn.) and results were expressed as counts per minute (cpm). Non-specific binding was determined in the presence of 1 μM oxymetazoline for hα2A- and hα2B-receptors and 1 μM spiroxatrine for hα2C receptors.
as §2

[3] = molecular target: T3, hα2A receptor (Homo sapiens, UniProt P08913); test: Radioligand binding experiment for α2A-adrenergic receptor ([3H]-raulwolscine); conditions: membranes of CHO cells transfected with human α2A receptor; [3H]raulwolscine 1 nM
T3 construct: expressed in transfected cells
T3 sequence (P08913 1-465): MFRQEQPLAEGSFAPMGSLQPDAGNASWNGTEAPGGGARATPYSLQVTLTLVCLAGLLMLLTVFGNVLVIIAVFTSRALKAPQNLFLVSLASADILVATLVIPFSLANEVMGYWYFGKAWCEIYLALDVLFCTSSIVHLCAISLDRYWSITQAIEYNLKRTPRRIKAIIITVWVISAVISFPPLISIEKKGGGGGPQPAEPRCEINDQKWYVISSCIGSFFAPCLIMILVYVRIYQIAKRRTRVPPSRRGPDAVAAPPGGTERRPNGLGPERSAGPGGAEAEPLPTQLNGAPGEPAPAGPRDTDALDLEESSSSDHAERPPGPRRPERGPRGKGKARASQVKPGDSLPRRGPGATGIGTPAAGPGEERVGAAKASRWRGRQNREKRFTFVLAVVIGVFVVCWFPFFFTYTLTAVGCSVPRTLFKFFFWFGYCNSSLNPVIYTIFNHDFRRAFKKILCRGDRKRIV
Description: as §1, §3, §4, §2

[4] = molecular target: T4, hα2C receptor (Homo sapiens, UniProt P18825); test: Radioligand binding experiment for α2C-adrenergic receptor ([3H]-raulwolscine); conditions: membranes of CHO cells transfected with human α2C receptor; [3H]raulwolscine 1 nM
T4 construct: expressed in transfected cells
T4 sequence (P18825 1-462): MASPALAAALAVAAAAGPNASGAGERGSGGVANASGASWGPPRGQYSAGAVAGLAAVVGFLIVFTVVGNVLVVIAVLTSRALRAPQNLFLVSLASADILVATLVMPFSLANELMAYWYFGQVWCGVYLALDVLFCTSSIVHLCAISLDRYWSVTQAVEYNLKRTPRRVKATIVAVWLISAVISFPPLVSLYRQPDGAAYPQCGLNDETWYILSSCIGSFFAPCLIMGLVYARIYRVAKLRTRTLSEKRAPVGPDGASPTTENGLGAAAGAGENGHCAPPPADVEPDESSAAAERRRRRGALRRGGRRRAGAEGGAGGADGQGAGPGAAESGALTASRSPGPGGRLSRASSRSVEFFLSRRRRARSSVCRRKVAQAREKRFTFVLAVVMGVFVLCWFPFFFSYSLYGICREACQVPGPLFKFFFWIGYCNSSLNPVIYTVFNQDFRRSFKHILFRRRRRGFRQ
Description: as §1, §3, §4, §2

T1 sequence (P31645 whole entry): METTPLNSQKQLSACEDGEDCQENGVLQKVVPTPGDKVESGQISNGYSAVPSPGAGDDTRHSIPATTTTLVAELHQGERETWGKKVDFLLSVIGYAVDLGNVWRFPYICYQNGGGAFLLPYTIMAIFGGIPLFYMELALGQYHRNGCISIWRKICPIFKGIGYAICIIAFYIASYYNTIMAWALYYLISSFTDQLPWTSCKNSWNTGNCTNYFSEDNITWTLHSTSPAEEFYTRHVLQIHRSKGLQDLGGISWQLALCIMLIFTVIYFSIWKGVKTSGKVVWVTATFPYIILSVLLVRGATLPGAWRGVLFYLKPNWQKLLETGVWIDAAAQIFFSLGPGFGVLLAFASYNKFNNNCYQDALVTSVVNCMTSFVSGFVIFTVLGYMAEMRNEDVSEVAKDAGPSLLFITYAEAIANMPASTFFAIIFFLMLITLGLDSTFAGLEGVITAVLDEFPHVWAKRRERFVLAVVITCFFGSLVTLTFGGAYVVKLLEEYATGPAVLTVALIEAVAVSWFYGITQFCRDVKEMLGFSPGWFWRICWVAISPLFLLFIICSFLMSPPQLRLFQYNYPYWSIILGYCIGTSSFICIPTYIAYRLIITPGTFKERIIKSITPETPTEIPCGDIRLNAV

## COc1cccc2c1OC[C@@H]1C2=NO[C@H]1CN1CCN(C/C(C)=C/c2ccccc2)CC1 (relative stereo) [Compound 6, 6-methoxy-3-[4-(2-methyl-3-phenyl-allyl)-piperazin-1-ylmethyl]-3a,4-dihydro-3H-chromeno[4,3-c]isoxazole]
[1]
  IC50: 50.1 nM
[2]
  IC50: 2 nM
[3]
  IC50: 7.94 nM
[4]
  IC50: 1.58 nM

## C/C(=C\c1ccccc1)CN1CCN(C[C@@H]2ON=C3c4cccc(O)c4OC[C@H]32)CC1 (relative stereo) [Compound 7, 3-[4-(2-methyl-3-phenyl-allyl)-piperazin-1-ylmethyl]-3a,4-dihydro-3H-chromeno[4,3-c]isoxazol-6-ol]
[1]
  IC50: 50.1 nM
[2]
  IC50: 1.26 nM
[3]
  IC50: 7.94 nM
[4]
  IC50: 2 nM

## COc1cc2c(c(Nc3ccncc3)c1OC)OC[C@@H]1C2=NO[C@H]1CN1CCN(C/C(C)=C/c2ccc(F)cc2)CC1 (relative stereo) [Compound 21, (3-{4-[3-(4-fluoro-phenyl)-2-methyl-allyl]-piperazin-1-ylmethyl}-7,8-dimethoxy-3a,4-dihydro-3H-chromeno [4,3-c]isoxazol-6-yl)-pyridin-4-yl-amine]
[1]
  IC50: 398 nM
[2]
  IC50: 15.8 nM
[3]
  IC50: 63.1 nM
[4]
  IC50: 6.31 nM

## COc1cc2c(c(N3CCN(C)CC3)c1OC)OC[C@@H]1C2=NO[C@H]1CN1CCN(C/C(C)=C/c2ccccc2)CC1 (single isomer, unassigned) [Compound 2, 7,8-dimethoxy-3-[4-(2-methyl-3-phenyl-allyl)-piperazin-1-ylmethyl]-6-(4-methyl-piperazin-1-yl)-3a,4-dihydro-3H-chromeno [4,3-c]isoxazole]
[1]
  IC50: 39.8 nM
[2]
  IC50: 1.58 nM
[3]
  IC50: 6.31 nM
[4]
  IC50: 0.794 nM

## COc1cc2c(c(C)c1OC)OC[C@@H]1C2=NO[C@H]1CN1CCN(C/C(C)=C/c2ccccc2)CC1 (single isomer, unassigned) [Compound 3, 7,8-dimethoxy-6-methyl-3-[4-(2-methyl-3-phenyl-allyl)-piperazin-1-ylmethyl]-3a,4-dihydro-3H-chromeno[4,3-c]isoxazole]
[1]
  IC50: 31.6 nM
[3]
  IC50: 1.58 nM
[4]
  IC50: 0.398 nM

## CCOC(=O)c1c(OC)c(OC)cc2c1OC[C@@H]1C2=NO[C@H]1CN1CCN(C/C(C)=C/c2ccccc2)CC1 (single isomer, unassigned) [Compound 4, 7,8-dimethoxy-3-[4-(2-methyl-3-phenyl-allyl)-piperazin-1-ylmethyl]-3a,4-dihydro-3H-chromeno[4,3-c]isoxazole-6-carboxylic acid ethyl ester]
[1]
  IC50: 63.1 nM
[2]
  IC50: 3.98 nM
[3]
  IC50: 6.31 nM
[4]
  IC50: 1.26 nM

## COC(=O)c1c(OC)c(OC)cc2c1OCC1C2=NOC1CN1CCN(C/C(C)=C/c2ccccc2)CC1 (single isomer, unassigned) [Compound 5]
[1]
  IC50: 158 nM
[2]
  IC50: 5.01 nM
[3]
  IC50: 2 nM
[4]
  IC50: 1.26 nM

## COCC(=O)OCCOc1cccc2c1OCC1C2=NOC1CN1CCN(CC(C)=Cc2ccccc2)CC1 (single isomer, unassigned) [Compound 24]
[1]
  IC50: 31.6 nM
[2]
  IC50: 25.1 nM
[3]
  IC50: 100 nM
[4]
  IC50: 39.8 nM

## COCC(=O)OCCOc1cccc2c1OCC1C2=NOC1CN1CCN(CC(C)=Cc2ccccc2)CC1 (single isomer, unassigned) [Compound 25]
[1]
  IC50: 316 nM
[2]
  IC50: 1.58 nM
[3]
  IC50: 39.8 nM
[4]
  IC50: 2 nM

## COc1cc2c(c(Br)c1OC)OCC1C2=NOC1CN1CCN(C/C(C)=C/c2ccccc2)CC1 (stereo not shown) [Compound 1, 6-Bromo-7,8-dimethoxy-3-[4-(2-methyl-3-phenyl-allyl)-piperazin-1-ylmethyl]-3a,4-dihydro-3H-chromeno[4,3-c]isoxazole]
[1]
  IC50: 12.6 nM
[3]
  IC50: 2 nM
[4]
  IC50: 1 nM

## COc1cccc2c1C1=NOC(CN3CCN(CC(C)=Cc4ccccc4)CC3)C1CO2 (stereo not shown) [Compound 8]
[1]
  IC50: 251 nM
[2]
  IC50: 1 nM
[3]
  IC50: 2 nM
[4]
  IC50: 2.51 nM

## CC(=Cc1ccccc1)CN1CCN(CC2ON=C3c4c(O)cccc4OCC32)CC1 (stereo not shown) [Compound 9]
[1]
  IC50: 63.1 nM
[2]
  IC50: 2 nM
[3]
  IC50: 25.1 nM
[4]
  IC50: 1.26 nM

## CCNC(=O)OCCOc1cccc2c1OCC1C2=NOC1CN1CCN(CC(C)=Cc2ccccc2)CC1 (stereo not shown) [Compound 10]
[1]
  IC50: 39.8 nM
[2]
  IC50: 5.01 nM
[3]
  IC50: 79.4 nM
[4]
  IC50: 6.31 nM

## CC(=Cc1ccccc1)CN1CCN(CC2ON=C3c4cccc(OCCO)c4OCC32)CC1 (stereo not shown) [Compound 11]
[1]
  IC50: 50.1 nM
[2]
  IC50: 2.51 nM
[3]
  IC50: 3.16 nM
[4]
  IC50: 3.16 nM

## COCC(=O)OCCOc1cccc2c1OCC1C2=NOC1CN1CCN(CC(C)=Cc2ccccc2)CC1 (stereo not shown) [Compound 12]
[1]
  IC50: 126 nM
[2]
  IC50: 6.31 nM
[3]
  IC50: 126 nM
[4]
  IC50: 3.98 nM
